According to US6890952B2, “Cyclic substituted aminomethyl compounds and medicaments comprising these compounds” (Gruenenthal GmbH, priority 2000, dated 2005):

Legend:
[1] = system: phenylquinone-induced writhing reactions; assay: phenylquinone-induced writhing test in mice; type: in vivo, mouse
Description: The antinociceptive activity of the compounds according to the invention was investigated in mice in the phenylquinone-induced writhing test, modified by I. C. Hendershot, J. Forsaith, J. Pharmacol. Exp. Ther. 125, 237-240 (1959). Male NMRI mice weighing 25-30 g were employed for this. Groups of 10 animals per substance dose received 0.3 ml/mouse of a 0.02% aqueous solution of phenylquinone (phenylbenzoquinone, Sigma, Deisenhofen; preparation of the solution with the addition of 5% ethanol and storage in a water bath at 45° C.) administered intraperitoneally 10 minutes after intravenous administration of a compound according to the invention. The animals were placed individually in observation cages. The number of pain-induced stretching movements (so-called writhing reactions=straightening of the body with stretching of the hind extremities) was counted by means of a push-button counter for 5-20 minutes after the administration of phenylquinone.
The ED50 values of the writhing reaction were calculated by means of regression analysis (evaluation program, Martens EDV Service, Eckental) from the dose-dependent decrease in writhing reactions compared with animal groups investigated in parallel to which no compound according to the invention was administered.
The majority of the substances were tested in the standard dose of 10 mg/kg. The percentage inhibition (% inhibition) of the writhing reactions by a substance was then calculated according to the following equation: [formula] The results are summarized in table 1 for selected compounds.

[2] = male NMRI mice, standard dose of 10 mg/kg

Compound	Writhing test, mouse, i.v. decrease in writhing reactions (% inhibition) [1, 2] [%]	melting point	other results
CN(C)CC1CCOc2ccccc2/C1=C\c1cccc(O)c1.Cl (racemic) [Example 6c, Z-(4RS)3-(4-Dimethylaminomethyl-3,4-dihydro-2H-benzo[b]oxepin-5-ylidene-methyl)-phenol hydrochloride]	78		
CN(C)CC1=C(Cc2ccc(Cl)cc2)c2cccc(O)c2CC1.Cl [Example 4c, 5-(4-Chlorobenzyl)-6-dimethylaminomethyl-7,8-dihydro-naphth-1-ol hydrochloride]	84	136 to 139 °C	
CN(C)CC1=C(Cc2cccc(O)c2)c2ccccc2CC1.Cl [Example 3, 3-(2-Dimethylaminomethyl-3,4-dihydro-naphth-1-ylmethyl)-phenol hydrochloride]	93		
CN(C)CC1=C(Cc2ccc(Cl)cc2Cl)c2ccccc2CC1.Cl		208 to 209 °C	
CN(C)CC1CCCc2ccccc2/C1=C/c1ccc(Cl)cc1.Cl (racemic) [Example 4e, E-(5RS)-[5-(4-Chlorobenzylidene)-6,7,8,9-tetrahydro-5H-benzocyclohepten-6-ylmethyl]-dimethylamine hydrochloride]	69		
CN(C)CC1=C(Cc2ccc(Cl)cc2)c2ccc(O)cc2CC1.Cl		110 °C (dec.)	
CN(C)CC1=C(Cc2ccc(Cl)cc2)c2ccccc2CC1.Cl [Example 2]	61.5		Writhing test, mouse, i.v. ED50 ([1]; male NMRI mice, 10 minutes before phenylquinone i.p.): 6.85 mg/kg
CN(C)CC1=C(Cc2cccc(O)c2)c2ccccc2OCC1.Cl [Example 6a, 3-(4-Dimethylaminomethyl-2,3-dihydro-benzo[b]oxepin-5-ylmethyl)-phenol hydrochloride]	95		
CN(C)CC1=C(Cc2ccc(Cl)cc2)c2ccccc2CCC1.Cl		240 to 243 °C	
CN(C)CC1CCOc2ccccc2/C1=C\c1ccc(Cl)cc1.Cl (racemic) [Example 7c, Z-(4RS) [5-(4-Chlorobenzylidene)-2,3,4,5-tetrahydro-benzo[b]oxepin-4-yl-methyl]-dimethylamine hydrochloride]	79		
CN(C)CC1CCOc2ccccc2/C1=C/c1cccc(O)c1.Cl (racemic) [Example 6b, E-(4RS)3-(4-Dimethylaminomethyl-3,4-dihydro-2H-benzo[b]oxepin-5-ylidene-methyl)-phenol hydrochloride]			Writhing test, mouse, i.v. decrease in writhing reactions (% inhibition) ([1]; male NMRI mice, dose 21.5 mg/kg as printed in table 1): 91% [21.5 mg/kg]; inhibition of writhing reactions ([1]; mouse, i.v., dose of 2.15 mg/kg body weight as printed in text): 91%
